This experiment addresses T1, hM2 receptor (Homo sapiens, UniProt P08172).
T1 construct: expressed in transfected cells; membranes prepared
T1 sequence (P08172 1-466): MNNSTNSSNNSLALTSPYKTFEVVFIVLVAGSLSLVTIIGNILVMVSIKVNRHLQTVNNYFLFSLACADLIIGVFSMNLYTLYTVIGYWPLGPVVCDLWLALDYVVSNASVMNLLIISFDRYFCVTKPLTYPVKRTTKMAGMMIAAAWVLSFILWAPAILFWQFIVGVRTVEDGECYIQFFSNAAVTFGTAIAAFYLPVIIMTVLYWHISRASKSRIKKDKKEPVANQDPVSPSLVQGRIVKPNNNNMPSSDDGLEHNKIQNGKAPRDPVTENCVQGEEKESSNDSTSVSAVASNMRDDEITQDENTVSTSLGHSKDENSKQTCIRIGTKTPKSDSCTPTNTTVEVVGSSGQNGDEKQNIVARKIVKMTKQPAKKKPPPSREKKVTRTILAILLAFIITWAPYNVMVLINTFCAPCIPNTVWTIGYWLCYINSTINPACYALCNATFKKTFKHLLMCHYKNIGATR
Put plainly: Blockade of agonist-mediated GTPγ[35S] binding. The conditions noted are these: membranes of CHO-K1 cells expressing hM2; read-out: Ki for blockade of carbachol-mediated GTPγ[35S] binding. Type of experiment: biochemical. The procedure: In this assay, the functional potency of a test compound was determined by measuring the ability of the test compound to block carbachol-stimulated GTPγ[^35S] binding in CHO-K1 cells expressing the hM2 receptor.
CHO-K1 cells stably expressing the hM2 muscarinic receptor were grown in medium consisting of Hams F-12 media supplemented with 10% Fetal Bovine Serum and 500 μg/ml of Geneticin (G-418). Cells were incubated in a 5% CO2, humidified incubator at 37° C. Cells were grown to confluence and harvested with dPBS+2 mM EDTA and pelleted by centrifugation at 250×g for 10 minutes.
Cells from the centrifuged pellets were resuspended in homogenization buffer (10 mM HEPES, 10 mM EDTA, pH 7 at 4° C.). […]
To determine the ability of a test compound to inhibit carbachol-stimulated GTPγ[^35S] binding, the following was added to each well of 96 well plates: 25 μL of assay buffer with […] and GDP, 25 μL of diluted test compound (prepared as described above), and 25 μL CHO cell membranes expressing the hM2 receptor. […] After the pre-incubation period, 25 μL of carbachol at the final concentration of its EC90 value determined earlier in the day was added to each plate. […]
Test compound potency (IC50) was determined using iterative curve fitting (GraphPad Prism 3.0 software; single site competition curve). […]
(GTPγS is a poorly hydrolysed GTP analogue; its binding reports G protein activation.)

Structures are written as SMILES.

A word on the Ki: it is the equilibrium dissociation constant of an inhibitor or competing ligand from its target. For `COc1ccncc1CN1CCC(N(CCCCCCCN2CC[C@@H](C(C(N)=O)(c3ccccc3)c3ccccc3)C2)C(C)C)CC1` [Example 1], the Ki is less than 1 nM.

For the origin of these results see patent publication US7285564B2, “Substituted 4-amino-1-(pyridylmethyl)piperidine and related compounds” (Theravance, Inc., priority 2002, dated 2007).
